Legend:
Type in all cases: functional, cell-based
[1] = tested on: BXPC-3; test: Proapoptotic activity in human BxPC3 cells by annexin V-FITC/propidium iodide staining-based capillary cytometric method
[2] = tested on: ASPC1; test: Proapoptotic activity in human AsPC1 cells by annexin V-FITC/propidium iodide staining-based capillary cytometric method
[3] = tested on: BJ; test: Proapoptotic activity in human BJ cells by annexin V-FITC/propidium iodide staining-based capillary cytometric method
[4] = tested on: NTERA-2-cl-D1; test: Proapoptotic activity in human NT2/D1 cells by annexin V-FITC/propidium iodide staining-based capillary cytometric method

EC50 [1]: 28 µM | EC50 [2]: 27 µM | EC50 [4]: 13 µM
Structure (SMILES): Nc1nc(-c2cccc(NC(=O)c3cc4cc(F)ccc4[nH]3)c2)c[nH]1
EC50 [3]: 16 µM

— ChEMBL document CHEMBL3853262 (Medchemcomm, 2016)
